Measured values: patent US9730447B2, “Fungicidal amides” (E I DU PONT DE NEMOURS AND COMPANY, priority 2013, dated 2017)
Marks after values point to notes of the source that are not given here.

How the values were obtained:
Assay type in all cases: in vivo
[1] = test system: Erysiphe graminis f. sp. tritici; assay: Test E: preventive spray on wheat seedlings, Erysiphe graminis f. sp. tritici (wheat powdery mildew), visual disease rating
Text: (§1) General protocol for preparing test suspensions for Tests A-E: the test compounds were first dissolved in acetone in an amount equal to 3% of the final volume and then suspended at the desired concentration (in ppm) in acetone and purified water (50/50 mix by volume) containing 250 ppm of the surfactant Trem® 014 (polyhydric alcohol esters). The resulting test suspensions were then used in Tests A-E. Compounds were sprayed with either a 40 ppm or 10 ppm (*) test suspension to the point of run-off on the test plants which is the equivalent of a rate of 160 g ai/ha or 40 g ai/ha, respectively.
The test suspension was sprayed to the point of run-off on wheat seedlings. The following day the seedlings were inoculated with a spore dust of Erysiphe graminis f. sp. tritici, (the causal agent of wheat powdery mildew) and incubated in a growth chamber at 20° C. for 8 days, after which time visual disease ratings were made.
(§2) Results for Tests A-E are given in Table A. In the Table, a rating of 100 indicates 100% disease control and a rating of 0 indicates no disease control (relative to the controls). A dash (-) indicates no test results.

[2] = test system: Stagonospora nodorum (also known as Septoria nodorum); assay: Test B: preventive spray on wheat seedlings, Stagonospora nodorum (wheat glume blotch), visual disease rating
Text: as §1
(§3) The test suspension was sprayed to the point of run-off on wheat seedlings. The following day the seedlings were inoculated with a spore suspension of Stagonospora nodorum (also known as Septoria nodorum; the causal agent of wheat glume blotch) and incubated in a saturated atmosphere at 20° C. for 48 h, and then moved to a growth chamber at 20° C. for 6 days, after which time visual disease ratings were made.
as §2

[3] = test system: Puccinia recondite f. sp. tritici; assay: Test D: preventive spray on wheat seedlings, Puccinia recondite f. sp. tritici (wheat leaf rust), visual disease rating
Text: as §1
as §3, with “Puccinia recondite f. sp. tritici; (the” for “Stagonospora nodorum (also known as Septoria nodorum; the”, “leaf rust)” for “glume blotch)”, “24” for “48”
as §2

Botrytis cinerea = assay: Test A: preventive spray on tomato seedlings, Botrytis cinerea (gray mold), visual disease rating; conditions: 100 = 100% disease control, 0 = no control relative to controls, unmarked values; for pest or weed control at 40 µg/mL, 160 g/ha: 96 h
Text: as §1
The test suspension was sprayed to the point of run-off on tomato seedlings. The following day the seedlings were inoculated with a spore suspension of Botrytis cinerea (the causal agent of gray mold on many crops) and incubated in a saturated atmosphere at 20° C. for 48 h, and moved to a growth chamber at 27° C. for 2 days, after which time visual disease ratings were made.
as §2

Septoria tritici = assay: Test C: preventive spray on wheat seedlings, Septoria tritici (wheat leaf blotch), visual disease rating
Text: as §1
The test suspension was sprayed to the point of run-off on wheat seedlings. The following day the seedlings were inoculated with a spore suspension of Septoria tritici (the causal agent of wheat leaf blotch) and incubated in a saturated atmosphere at 24° C. for 48 h, and then moved to a growth chamber at 20° C. for 21 days, after which time visual disease ratings were made.
as §2

[4] = 100 = 100% disease control, 0 = no control, unmarked values
[5] = values marked with asterisk (*), meaning not given

SMILES | Test E disease control rating [1, 4] | Test B disease control rating [2, 4] | Test D disease control rating [3, 4] | Test A disease control rating (Botrytis cinerea) | other results
O=C(Nc1ccccc1-c1ccc(C2=NOC(c3cc(F)cc(F)c3)C2)nc1)c1ncccc1C(F)(F)F (racemic) [compound 19] | 87% | 100% | 100% | 98% | Test C disease control rating (Septoria tritici; [4]): 100%
O=C(Nc1ccccc1-c1ccc(-n2cc(Br)cn2)nc1)c1ncccc1Cl [compound 47] | 0% | 0% | 100% | 91% | Test C disease control rating (Septoria tritici; [4]): 82%
O=C(Nc1ccccc1-c1cnc(-n2cc(Cl)cn2)c(Cl)c1)c1ncccc1C(F)(F)F [Compound 61, N-[2-[5-chloro-6-[4-chloro-1H-pyrazol-1-yl]-3-pyridinyl]phenyl]-3-(trifluoromethyl)-2-pyridinecarboxamide] | – | – | – | – | pest or weed control at 40 µg/mL, 160 g/ha (Botrytis cinerea): 41%
O=C(Nc1ccccc1-c1cnc(-n2ccc(C(F)(F)F)n2)c(Cl)c1)c1nccnc1Cl [compound 96] | 96% | 60% | 99% | 0% | –
Cc1ccsc1C(=O)Nc1ccccc1-c1ccc(-n2ccc(C(F)(F)F)n2)nc1 [compound 93] | 99% | 97% | 100% | 0% | –
O=C(Nc1ccccc1-c1cnc(-n2ccc(Cl)n2)c(F)c1)c1ccccc1C(F)(F)F [compound 77] | 98% | 0% | 100% | 74% | Test C disease control rating (Septoria tritici; [4]): 100%
Cc1ccc(-c2ccc(-c3ccccc3NC(=O)c3cn(C)nc3C(F)F)cn2)s1 [compound 21] | 43% | 97% | 100% | 99% | Test C disease control rating (Septoria tritici; [4]): 81%
O=C(Nc1ccccc1-c1ccc(-n2cc(Cl)cn2)nc1)c1ncccc1C(F)(F)F [compound 32] | 99% | 100% | 100% | 99% | Test C disease control rating (Septoria tritici; [4]): 100%
O=C(Nc1ccccc1-c1ccc(-n2ccc(-c3ccccc3)n2)nc1)c1ncccc1C(F)(F)F [compound 39] | 89% | 0% | 92% | 45% | Test C disease control rating (Septoria tritici; [4]): 92%
CC(Cc1ccc(-n2ccc(C(F)(F)F)n2)nc1)NC(=O)c1cn(C)nc1C(F)F (stereo not shown) [Compound 83, 3-(difluoromethyl)-1-methyl-N-[1-methyl-2-[6-[3-(trifluoromethyl)-1H-pyrazol-1-yl]-3-pyridinyl]ethyl]-1H-pyrazole-4-carboxamide] | – | – | – | – | pest or weed control at 40 µg/mL, 160 g/ha (Botrytis cinerea): 99%
Cn1cc(C(=O)Nc2ccccc2-c2ccc(-n3ccc(C(F)(F)F)n3)nc2)c(C(F)(F)F)n1 [compound 94] | 99% | 98% | 100% | 0% | –
O=C(Nc1ccccc1-c1cnc(-n2ccc(C(F)(F)F)n2)c(Cl)c1)c1ncccc1C(F)(F)F [Compound 34, N-[2-[5-chloro-6-[3-(trifluoromethyl)-1H-pyrazol-1-yl]-3-pyridinyl]phenyl]-3-(trifluoromethyl)-2-pyridinecarboxamide] | – | – | – | – | pest or weed control at 40 µg/mL, 160 g/ha (Botrytis cinerea): 96%
Cc1nc(C(F)(F)F)c(C(=O)Nc2ccccc2-c2ccc(-n3ccc(C(F)(F)F)n3)nc2)s1 [compound 92] | 98% | 60% | 100% | 0% | –
O=C(Nc1ccccc1-c1cnc(-n2ccc(C(F)(F)F)n2)cn1)c1ncccc1C(F)(F)F [Compound 3, 3-(trifluoromethyl)-N-[2-[5-[3-(trifluoromethyl)-1H-pyrazol-1-yl]-2-pyrazinyl]phenyl]-2-pyridinecarboxamide] | – | – | – | – | pest or weed control at 40 µg/mL, 160 g/ha (Botrytis cinerea): 0%
CC(Cc1ccc(-n2ccc(C(F)(F)F)n2)nc1)NC(=O)c1ncccc1C(F)(F)F (stereo not shown) [Compound 84, N-[1-methyl-2-[6-[3-(trifluoromethyl)-1H-pyrazol-1-yl]-3-pyridinyl]ethyl]-3-(trifluoromethyl)-2-pyridinecarboxamide] | – | – | – | – | pest or weed control at 40 µg/mL, 160 g/ha (Botrytis cinerea): 66%
O=C(Nc1ccccc1-c1ccc(-n2ccc(C(F)(F)F)n2)nn1)c1ncccc1C(F)(F)F [Compound 59, 3-(trifluoromethyl)-N-[2-[6-[3-(trifluoromethyl)-1H-pyrazol-1-yl]-3-pyridazinyl]phenyl]-2-pyridinecarboxamide] | – | – | – | – | pest or weed control at 40 µg/mL, 160 g/ha (Botrytis cinerea): 0%
Cn1cc(C(=O)Nc2ccccc2-c2cnc(-n3ccc(C(F)(F)F)n3)c(F)c2)c(C(F)F)n1 [Compound 68, 3-(difluoromethyl)-N-[2-[5-fluoro-6-[3-(trifluoromethyl)-1H-pyrazol-1-yl]-3-pyridinyl]phenyl]-1-methyl-1H-pyrazole-4-carboxamide] | – | – | – | – | pest or weed control at 40 µg/mL, 160 g/ha (Botrytis cinerea): 94%
COc1cc(OC)cc(-c2ccn(-c3ccc(-c4ccccc4NC(=O)c4cn(C)nc4C(F)F)cn3)n2)c1 [compound 91] | 56% | 33% | 100% | 87% | –
Cc1ccsc1C(=O)Nc1ccccc1-c1cnc(-n2ccc(C(F)(F)F)n2)c(Cl)c1 [compound 95] | 98% | 100% | 100% | 0% | –
Cn1cc(C(=O)Nc2ccccc2-c2cnc(-n3ccc(C(F)(F)F)n3)c(Cl)c2)c(C(F)(F)F)n1 [compound 97] | 99% | 87% | 100% | 0% | –
Cn1cc(C(=O)Nc2ccccc2-c2ccc(-n3ccc(-c4ccccc4F)n3)nc2)c(C(F)F)n1 [compound 90] | 72% | 46% | 100% | 93% | –
Cn1cc(C(=O)Nc2ccccc2-c2ccc(-n3ccc(-c4cc(F)cc(F)c4)n3)nc2)c(C(F)F)n1 [compound 89] | 79% | 0% | 100% | 75% | –
O=C(Nc1ccccc1-c1cnc(-n2ccc(C(F)F)n2)c(F)c1)c1ncccc1C(F)(F)F [compound 161] | 99% | 100% | 100% | – | Test C disease control rating (Septoria tritici; [4]): 95%
Cc1ccsc1C(=O)Nc1ccccc1-c1cnc(-n2ccc(C(F)(F)F)n2)c(C#N)c1 [compound 154] | – | – | – | – | Test E disease control rating [1, 5]: 0* %; Test B disease control rating [2, 5]: 59* %; Test D disease control rating [3, 5]: 100* %; Test C disease control rating (Septoria tritici; [5]): 94* %
O=C(NCCc1ncc(-n2ccc(Cl)n2)cn1)c1ncccc1C(F)(F)F [Compound 181] | – | – | – | – | Test E disease control rating [1, 5]: 0* %; Test B disease control rating [2, 5]: 64* %; Test D disease control rating [3, 5]: 9* %; Test C disease control rating (Septoria tritici; [5]): 20* %
